{
  "source": "patent US20090069405A1",
  "about": "“TREATMENT OF CNS AND PAIN DISORDERS” (Valexfarm, Ltd., priority 2007, published 2009)",
  "type_in_all_cases": "in vivo",
  "key": {"mice [1]": {"test_system": "mice", "assay": "Forced Swim Test", "description": "Forced Swim Test. The test apparatus consisted of a clear plastic cylindrical tank, 35 cm high and 25 cm in diameter, which was filled to a depth of 25 cm with tap water equilibrated overnight to room temperature (24° C.). A glass plate covered the top of the tank to prevent escape while the mouse was swimming. The water in the tank was replaced by fresh water at room temperature after three mice had been tested. To habituate the mouse, it was forced to swim in the tank for 15 min., then removed and dried by toweling and a heat lamp, and returned to its cage. Twenty-four hours later, the mouse was returned to the tank and allowed to swim for 5 min. while its swimming activity was recorded by a video camera, mounted above the tank. After this, the mouse was dried and returned to its cage. End points of the test were total time spent floating in an immobile position, without paddling of limbs (swimming) (Porsolt et al. Nature (1977) 266:730-732)."}, "mice [2]": {"test_system": "mice", "assay": "Hot plate test", "conditions": "peroral administration, 50 mg/kg, plate 55.0±0.5° C., 30 min after compound", "description": "Hot plate test. Male mice weighing from 25 to 30 g were used in this test. […] The surface of the plate was maintained at a temperature of 55.0±0.5° C. […] Time (in seconds) to either hind paw licking or jumping was recorded as pain response latency. To avoid the likelihood of tolerance of mice to hot plate, all mice were exposed to hot plate only once through the whole experiment. The mice were exposed to hot plate only once; either before or after injection of drug."}, "mice [3]": {"test_system": "mice", "assay": "Formalin paw test", "conditions": "formalin 4.5%, 20 μl, left hind paw, dose 30 mg/kg, compared to control", "description": "Formalin paw test. The mice received an injection of formalin (4.5%, 20 μl) to the left hind paw. The irritation caused by the formalin injection elicits a characteristic biphasic behavioral response as quantified by the amount of time spent licking the injured paw. The first phase (˜5-10 minutes) represents direct chemical […], and the second phase (˜20-30 minutes) is thought to represent pain of neuropathic origin (Tjølsen A et al. Pain (1992) 51:5-17). The two phases are separated by a quiescent period in which behavior returns to normal. The effectiveness of test compounds to reduce the painful stimuli is assessed by counting the amount of time spent licking the injured paw in the two phases."}, "mice [4]": {"test_system": "mice", "assay": "Tail-flick test", "description": "Tail-flick test. The tail-flick test, using a radiant heat source was carried out to study antinociception. Each mouse was placed in an acrylic tube and its tail was laid across a Nichrome™ wire coil, which was heated by the passage of an electric current. The intensity of the current was kept at 5 mA. All animals were screened for the tail-flick response. Only those showing a flick within 4 sec were included in the study. After 1 h of final dosing, the mice were submitted to three tail-flick tests."}},
  "data": [
    {"smiles": "NC(=O)N1c2ccccc2C=Cc2ccccc21", "note": "[carbamazepine]", "values": [
      {"measurement": "antidepressive effect (total time spent floating immobile)", "setting": "mice [1]; 50 mg/kg", "value": "significant effect"}
    ]},
    {"smiles": "CCCC(CCC)C(=O)[O-].[Na+]", "note": "[sodium valproate]", "values": [
      {"measurement": "antidepressive effect (total time spent floating immobile)", "setting": "mice [1]; 250 mg/kg", "value": "significant effect"}
    ]},
    {"smiles": "O=C1CNC(=O)/C1=C\\NCc1ccccc1", "note": "[tetramic derivative of the invention]", "values": [
      {"measurement": "analgesic effect (pain response latency, hot plate)", "setting": "mice [2]", "value": "analgesic effect"},
      {"measurement": "antidepressive effect (total time spent floating immobile)", "setting": "mice [1]; 100 mg/kg", "value": "significant antidepressive effect"},
      {"measurement": "reduction in pain score in the chronic phase", "setting": "mice [3]", "value": 5, "unit": "%"},
      {"measurement": "analgesic effect (tail-flick) compared to phenytoin and valproate", "setting": "mice [4]; highest dose tested 500 mg/kg, versus phenytoin 100 mg/kg and valproate 500 mg/kg", "value": "relatively better analgesic effect"},
      {"measurement": "analgesic effect (tail-flick)", "setting": "mice [4]; peroral administration, 1 h after final dosing", "value": "analgesic effect"}
    ]}
  ]
}
